Assay results published in patent US20080063636A1, “Variant Amyloid Protein” (priority 2004, published 2008).

Test system: human cultured cell HEK cells
Assay: Quantification of amyloid protein secreted by HEK cells expressing APP cDNA
Assay type: cell-based
Design: Aβ42: unit not given here
Conditions: secreted by HEK cells expressing the APP cDNA, 2 days, culture supernatant
Source text: Since the variant APP gene cDNA obtained in Example 1 had the variant inside the amyloid protein, a β secretase or γ secretase cleavage site was examined. Then, an expression vector of the variant APP gene cDNA was introduced into human cultured cell HEK cells known to express APP as well as to produce and secrete amyloid protein. The expression was left to occur for 2 days to obtain a culture supernatant, and an immunoprecipitated fraction obtained by using an anti-amyloid protein antibody was subjected to a mass analysis with the use of AXIMA-CFR manufactured by Shimadzu Corporation.
Note that a vacant expression vector dissolved into a normal saline was used as the control in Table 1. Also, Aβ42 represents Aβ1-42 and Aβ1-43 or Aβ1-42 (ΔE) and Aβ1-43 (ΔE), and Aβ40 represents Aβ1-40 or Aβ1-40 (ΔE).

## Wildtype APP: wildtype amyloid precursor protein expressed in human cultured HEK cells
Aβ40 = Aβ1-40 or Aβ1-40 (ΔE)
  Aβ40: 200 pg/mL
Aβ42 = Aβ1-42 and Aβ1-43 or their ΔE forms
  Aβ42: 26
